Residues, ends and D or L forms follow the SMILES beside them.
Assays:
Sap9 = Sap9 (Candida albicans, UniProt Q59SU1); experiment: in vitro; settings: 2 h, 37° C.; for degradation by Sap9 (in words): 3.13 μg mL^−1 Sap9, 150 μg mL^−1 peptide; for degradation at higher Sap9 concentration (in words): 6.25 μg mL^−1 Sap9, 150 μg mL^−1 peptide
Protocol: (§1) Experiments were done in 1 mM NaPB. The mixtures were incubated at 37° C. for 2 h, and NaPB with no Sap was used as a control. After the incubation, the samples were mixed with tricine sample buffer (without Coomassie Blue G-250, except in control samples) containing β-mercaptoethanol and boiled for 5 min at 100° C. to inactivate the proteases. The degraded and non-degraded peptides were separated by gel electrophoresis in 10-20% Tris-tricine gels (Bio-Rad), and the gels were then fixed in a 10% acetic acid/40% methanol/50% water mixture for 30 min. The fixed gels were stained with Bio-Safe Coomassie stain (Bio-Rad) for 1 h and washed with fresh water three times, once overnight and then twice for at least 2 h each time. The gels were imaged on a Chemidoc imager (Bio-Rad), and densitometric analysis was done with Image Lab software (Bio-Rad). […] Three replicates of the assay were done.
(§2) To measure the antifungal activity of the peptides following degradation by the Saps, the antifungal activity assay was performed as described above, except the peptides were first exposed to Saps. The peptide fragments were prepared by incubating each peptide (150 μg mL^−1) with 6.25 μg mL^−1 Sap9 or 18 μg mL^−1 Sap2 for 2 h at 37° C. The enzymes were then inactivated by heating at 100° C. for 5 min. As controls, each peptide was also incubated with only NaPB buffer. Samples were then stored at −20° C. until use in the antifungal activity assay.
(§3) The intact peptide was then separated from the degradation products using gel electrophoresis and quantified the level of degradation using densitometric analysis of Coomassie-stained gels.
(§4) To amplify differences in antifungal activity due to degradation by the Saps, the concentrations of the Saps was increased by at least two-fold compared to the concentrations used for the gel electrophoresis data in FIGS. 1A-1D (to 6.25 μg mL^−1 for Sap9 and 18 μg mL^−1 for Sap2).

Sap2 = Sap2 (Candida albicans, UniProt P0DJ06); experiment: in vitro; settings: 2 h, 37° C.; for degradation by Sap2 (in words): 6.25 μg mL^−1 Sap2, 150 μg mL^−1 peptide
Protocol: as §1, §2, §3, §4

[1] = system: C. albicans cells (ATCC 90028); experiment: Degradation of peptides by whole C. albicans cells, gel densitometry; assay type: in vitro ADME; settings: 1×10^9 cells mL^−1, 150 μg mL^−1 peptide, 2 h, 37° C., 100 mM NaPB
Protocol: For degradation with C. albicans, a single colony of the ATCC 90028 strain (American Type Culture Collection) was used to inoculate YPD. The culture was grown overnight, subcultured, and grown to an optical density of 1-1.2 at OD600. All incubations were done at 30° C. The cells were washed three times in 100 mM NaPB and diluted to 2×10^9 cells mL^−1. Equal volumes of cells and peptides were mixed and incubated for 2 h at 37° C. The cells were removed by centrifugation, and the supernatants were mixed with tricine sample buffer and boiled for 10 min. The samples were then run on gels and analyzed as described above for degradation by the Saps. Three biological replicates were performed.
After observing the effect of residue modifications on the cleavage of Hst-5 by the purified recombinant Saps, whether incubation of the peptides with whole C. albicans cells expressing Saps (rather than Saps produced recombinantly) would yield similar results was evaluated. Hst-5 and the synthetic peptides were incubated with C. albicans cells for 2 h at 37° C. in 100 mM NaPB. The high ionic strength of this buffer prevents internalization of the peptides by C. albicans (4) allowing analysis of degradation of the peptides without the confounding effects of peptide internalization, which would reduce the amount of peptide in the reaction buffer.

Sequence of Sap2 (P0DJ06 57-398): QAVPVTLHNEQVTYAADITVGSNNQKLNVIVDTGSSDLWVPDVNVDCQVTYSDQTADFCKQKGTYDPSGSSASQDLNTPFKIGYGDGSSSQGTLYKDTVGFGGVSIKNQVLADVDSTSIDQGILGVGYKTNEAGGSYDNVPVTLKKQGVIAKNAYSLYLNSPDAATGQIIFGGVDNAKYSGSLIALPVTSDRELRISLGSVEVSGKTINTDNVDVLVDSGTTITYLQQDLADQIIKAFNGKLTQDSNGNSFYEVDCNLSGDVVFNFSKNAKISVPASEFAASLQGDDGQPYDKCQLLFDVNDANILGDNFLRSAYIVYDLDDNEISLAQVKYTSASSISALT
Sequence of Sap9 (Q59SU1 18-520): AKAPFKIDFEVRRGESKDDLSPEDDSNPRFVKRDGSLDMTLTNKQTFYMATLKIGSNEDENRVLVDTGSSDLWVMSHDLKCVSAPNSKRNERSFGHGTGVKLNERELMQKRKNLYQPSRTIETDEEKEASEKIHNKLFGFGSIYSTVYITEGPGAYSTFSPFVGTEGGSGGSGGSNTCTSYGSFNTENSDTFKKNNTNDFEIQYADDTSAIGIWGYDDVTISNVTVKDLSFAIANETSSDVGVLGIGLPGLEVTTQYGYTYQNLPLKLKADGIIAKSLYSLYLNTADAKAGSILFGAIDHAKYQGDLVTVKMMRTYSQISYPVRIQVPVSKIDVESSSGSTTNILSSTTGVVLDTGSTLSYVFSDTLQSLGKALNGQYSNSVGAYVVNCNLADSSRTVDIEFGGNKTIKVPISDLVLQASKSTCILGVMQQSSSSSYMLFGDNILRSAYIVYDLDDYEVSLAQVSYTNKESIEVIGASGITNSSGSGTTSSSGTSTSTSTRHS

Row | Compound | degradation by Sap9 (in words) (Sap9) | degradation by Sap2 (in words) (Sap2) | degradation at higher Sap9 concentration (in words) (Sap9) | degradation by C. albicans cells (in words) [1] | intact peptide at higher Sap2 concentration (in words) (Sap2; 18 μg mL^−1 Sap2, 150 μg mL^−1 peptide)
1 | CC(C)C[C@H](NC(=O)[C@H](Cc1c[nH]cn1)NC(=O)[C@H](Cc1ccccc1)NC(=O)[C@H](CCCCN)NC(=O)[C@H](CCCNC(=N)N)NC(=O)[C@H](CCCCN)NC(=O)[C@H](Cc1ccc(O)cc1)NC(=O)CNC(=O)[C@H](Cc1c[nH]cn1)NC(=O)[C@H](Cc1c[nH]cn1)NC(=O)[C@H](CCCNC(=N)N)NC(=O)[C@H](CCCCN)NC(=O)[C@H](C)NC(=O)[C@H](Cc1c[nH]cn1)NC(=O)[C@H](CO)NC(=O)[C@@H](N)CC(=O)O)C(=O)N[C@@H](CCCCN)C(=O)N[C@@H](Cc1c[nH]cn1)C(=O)N[C@@H](Cc1c[nH]cn1)C(=O)N[C@@H](CO)C(=O)N[C@@H](Cc1c[nH]cn1)C(=O)N[C@@H](CCCNC(=N)N)C(=O)NCC(=O)N[C@@H](Cc1ccc(O)cc1)C(=O)O [Peptide E16L] (H-DSHAKRHHGYKRKFHLKHHSHRGY-OH; N-terminus and C-terminus assumed) | increased compared to Hst-5 | increased compared to Hst-5 |  |  | 
2 | CC(C)C[C@H](NC(=O)[C@H](C)NC(=O)[C@H](Cc1c[nH]cn1)NC(=O)[C@H](CO)NC(=O)[C@@H](N)CC(=O)O)C(=O)N[C@@H](CCCNC(=N)N)C(=O)N[C@@H](Cc1c[nH]cn1)C(=O)N[C@@H](Cc1c[nH]cn1)C(=O)NCC(=O)N[C@@H](Cc1ccc(O)cc1)C(=O)N[C@@H](CCCCN)C(=O)N[C@@H](CCCNC(=N)N)C(=O)N[C@@H](CCCCN)C(=O)N[C@@H](Cc1ccccc1)C(=O)N[C@@H](Cc1c[nH]cn1)C(=O)N[C@@H](CCC(=O)O)C(=O)N[C@@H](CCCCN)C(=O)N[C@@H](Cc1c[nH]cn1)C(=O)N[C@@H](Cc1c[nH]cn1)C(=O)N[C@@H](CO)C(=O)N[C@@H](Cc1c[nH]cn1)C(=O)N[C@@H](CCCNC(=N)N)C(=O)NCC(=O)N[C@@H](Cc1ccc(O)cc1)C(=O)O [Peptide K5L] (H-DSHALRHHGYKRKFHEKHHSHRGY-OH; N-terminus and C-terminus assumed) | greater degradation than their arginine-substituted counterparts or parent Hst-5 |  | not intact | decrease in proteolysis | 
3 | C[C@H](NC(=O)[C@H](Cc1c[nH]cn1)NC(=O)[C@H](CO)NC(=O)[C@@H](N)CC(=O)O)C(=O)N[C@@H](CCCNC(=N)N)C(=O)N[C@@H](CCCNC(=N)N)C(=O)N[C@@H](Cc1c[nH]cn1)C(=O)N[C@@H](Cc1c[nH]cn1)C(=O)NCC(=O)N[C@@H](Cc1ccc(O)cc1)C(=O)N[C@@H](CCCCN)C(=O)N[C@@H](CCCNC(=N)N)C(=O)N[C@@H](CCCCN)C(=O)N[C@@H](Cc1ccccc1)C(=O)N[C@@H](Cc1c[nH]cn1)C(=O)N[C@@H](CCC(=O)O)C(=O)N[C@@H](CCCCN)C(=O)N[C@@H](Cc1c[nH]cn1)C(=O)N[C@@H](Cc1c[nH]cn1)C(=O)N[C@@H](CO)C(=O)N[C@@H](Cc1c[nH]cn1)C(=O)N[C@@H](CCCNC(=N)N)C(=O)NCC(=O)N[C@@H](Cc1ccc(O)cc1)C(=O)O [Peptide K5R] (H-DSHARRHHGYKRKFHEKHHSHRGY-OH; N-terminus and C-terminus assumed) |  |  |  | no significant effect | no statistically significant amount of these peptides remained
4 | CC(C)C[C@H](NC(=O)[C@H](Cc1ccc(O)cc1)NC(=O)CNC(=O)[C@H](Cc1c[nH]cn1)NC(=O)[C@H](Cc1c[nH]cn1)NC(=O)[C@H](CCCNC(=N)N)NC(=O)[C@H](CCCCN)NC(=O)[C@H](C)NC(=O)[C@H](Cc1c[nH]cn1)NC(=O)[C@H](CO)NC(=O)[C@@H](N)CC(=O)O)C(=O)N[C@@H](CCCNC(=N)N)C(=O)N[C@@H](CCCCN)C(=O)N[C@@H](Cc1ccccc1)C(=O)N[C@@H](Cc1c[nH]cn1)C(=O)N[C@@H](CCC(=O)O)C(=O)N[C@@H](CCCCN)C(=O)N[C@@H](Cc1c[nH]cn1)C(=O)N[C@@H](Cc1c[nH]cn1)C(=O)N[C@@H](CO)C(=O)N[C@@H](Cc1c[nH]cn1)C(=O)N[C@@H](CCCNC(=N)N)C(=O)NCC(=O)N[C@@H](Cc1ccc(O)cc1)C(=O)O [Peptide K11L] (H-DSHAKRHHGYLRKFHEKHHSHRGY-OH; N-terminus and C-terminus assumed) | greater degradation than their arginine-substituted counterparts or parent Hst-5 |  | not intact |  | 
5 | C[C@H](NC(=O)[C@H](Cc1c[nH]cn1)NC(=O)[C@H](CO)NC(=O)[C@@H](N)CC(=O)O)C(=O)N[C@@H](CCCCN)C(=O)N[C@@H](CCCNC(=N)N)C(=O)N[C@@H](Cc1c[nH]cn1)C(=O)N[C@@H](Cc1c[nH]cn1)C(=O)NCC(=O)N[C@@H](Cc1ccc(O)cc1)C(=O)N[C@@H](CCCNC(=N)N)C(=O)N[C@@H](CCCNC(=N)N)C(=O)N[C@@H](CCCCN)C(=O)N[C@@H](Cc1ccccc1)C(=O)N[C@@H](Cc1c[nH]cn1)C(=O)N[C@@H](CCC(=O)O)C(=O)N[C@@H](CCCNC(=N)N)C(=O)N[C@@H](Cc1c[nH]cn1)C(=O)N[C@@H](Cc1c[nH]cn1)C(=O)N[C@@H](CO)C(=O)N[C@@H](Cc1c[nH]cn1)C(=O)N[C@@H](CCCNC(=N)N)C(=O)NCC(=O)N[C@@H](Cc1ccc(O)cc1)C(=O)O [Peptide K11R-K17R] (H-DSHAKRHHGYRRKFHERHHSHRGY-OH; N-terminus and C-terminus assumed) | no observable degradation | no observable degradation |  |  | 
6 | C[C@H](NC(=O)[C@H](Cc1c[nH]cn1)NC(=O)[C@H](CO)NC(=O)[C@@H](N)CC(=O)O)C(=O)N[C@@H](CCCCN)C(=O)N[C@@H](CCCNC(=N)N)C(=O)N[C@@H](Cc1c[nH]cn1)C(=O)N[C@@H](Cc1c[nH]cn1)C(=O)NCC(=O)N[C@@H](Cc1ccc(O)cc1)C(=O)N[C@@H](CCCNC(=N)N)C(=O)N[C@@H](CCCNC(=N)N)C(=O)N[C@@H](CCCCN)C(=O)N[C@@H](Cc1ccccc1)C(=O)N[C@@H](Cc1c[nH]cn1)C(=O)N[C@@H](CCC(=O)O)C(=O)N[C@@H](CCCCN)C(=O)N[C@@H](Cc1c[nH]cn1)C(=O)N[C@@H](Cc1c[nH]cn1)C(=O)N[C@@H](CO)C(=O)N[C@@H](Cc1c[nH]cn1)C(=O)N[C@@H](CCCNC(=N)N)C(=O)NCC(=O)N[C@@H](Cc1ccc(O)cc1)C(=O)O [Peptide K11R] (H-DSHAKRHHGYRRKFHEKHHSHRGY-OH; N-terminus and C-terminus assumed) | did not show a significant increase in resistance to the protease |  | significant reduction in degradation compared to Hst-5 | did not show a significant difference in degradation of the peptide compared to Hst-5 | 

Source: US10464977B2 (University of Maryland, Baltimore, priority 2016, dated 2019)
